Here are results for eight compounds from ChEMBL document CHEMBL4359891, “Synthesis of polyfluoroalkyl sp2-iminosugar glycolipids and evaluation of their immunomodulatory properties towards anti-tumor, anti-leishmanial and anti-inflammatory therapies” (Eur J Med Chem, 2019).

Each structure is given as a SMILES string. Calls of active or inactive are those of the source. The calls are words filed in the database; no cut-off is given here.

In series [1] the test system is A549. Kind of series: Antiproliferative activity against human A549 cells assessed as growth inhibition after 48 hrs by SRB assay. It counts as functional. The settings on record: A549, 48 h.
Series [2] relates to THP-1. As to the kind of experiment: Cytotoxicity against human THP1 cells assessed as reduction in cell viability after 72 hrs by MTT assay. Type of series: cell-based. The settings on record: THP-1, 72 h.
Series [3] concerns T47D. As to the kind of experiment: Antiproliferative activity against human T47D cells assessed as growth inhibition after 48 hrs by SRB assay. It counts as functional.
In series [4] the test system is HBL-100. Kind of series: Antiproliferative activity against human HBL100 cells assessed as growth inhibition after 48 hrs by SRB assay. It counts as functional. The settings on record: HBL-100, 48 h.
Series [5] is described as follows: Critical aggregation concentration of compound by spectrofluorophotometric method. Type of series: physicochemical.
In series [6] the test system is HeLa. As to the kind of experiment: Antiproliferative activity against human HeLa cells assessed as growth inhibition after 48 hrs by SRB assay. It counts as functional.
Series [7] deals with Leishmania donovani. As to the kind of experiment: Antileishmanial activity against intracellular amastigote stage of Leishmania donovani fused with LUC infected in human THP1 cells assessed as parasite growth inhibition after 72 hrs post infection by luciferase based assay. The settings on record: THP-1, 72 h. It counts as functional, organism-based.
Series [8] has as its system WiDr. Kind of series: Antiproliferative activity against human WiDr cells assessed as growth inhibition after 48 hrs by SRB assay. Type of series: functional.
Series [9] concerns SW1573. As to the kind of experiment: Antiproliferative activity against human SW1573 cells assessed as growth inhibition after 48 hrs by SRB assay. Type of series: functional. The settings on record: SW1573, 48 h.
In series [10] the target is Mitogen-activated protein kinase 14 (Mus musculus) (UniProt P47811). Kind of series: Activation of p38 alpha MAPK in mouse BV2 cells assessed as p38 phosphorylation at 1 uM incubated for 15 to 60 mins by Western blot analysis. Type of series: cell-based.
Series [11] concerns BV-2. Kind of series: Antiinflammatory activity against mouse BV2 cells assessed as reduction in LPS-induced nitrite level at 1 to 10 uM by Griess assay. It counts as functional, cell-based.
The test system of series [12] is BV-2. Kind of series: Antiinflammatory activity against mouse BV2 cells assessed as reduction in LPS-induced iNOS protein expression at 10 uM by Western blot analysis. It counts as functional, cell-based.
For series [13], the system named is BV-2. Kind of series: Cytotoxicity against mouse BV2 cells assessed as reduction in cell viability up to 10 uM by crystal violet staining based assay.
The target in series [14] is Mitogen-activated protein kinase 14 (Mus musculus) (UniProt P47811). Kind of series: Activation of p38 alpha MAPK in mouse BV2 cells assessed as p38 phosphorylation at 10 uM by Western blot analysis. Type of series: cell-based. The settings on record: TDE = time-dependent effect.
The target is the same in series [15]. Kind of series: Activation of p38 alpha MAPK in mouse BV2 cells assessed as p38 phosphorylation at 1 uM by Western blot analysis. It counts as cell-based. The settings on record: TDE = time-dependent effect.
Series [16] deals with BV-2. As to the kind of experiment: Antiinflammatory activity against mouse BV2 cells assessed as reduction in LPS-induced iNOS protein expression at 1 uM by Western blot analysis. Type of series: functional, cell-based.

Sequence of Mitogen-activated protein kinase 14 (Mus musculus) (P47811 whole entry): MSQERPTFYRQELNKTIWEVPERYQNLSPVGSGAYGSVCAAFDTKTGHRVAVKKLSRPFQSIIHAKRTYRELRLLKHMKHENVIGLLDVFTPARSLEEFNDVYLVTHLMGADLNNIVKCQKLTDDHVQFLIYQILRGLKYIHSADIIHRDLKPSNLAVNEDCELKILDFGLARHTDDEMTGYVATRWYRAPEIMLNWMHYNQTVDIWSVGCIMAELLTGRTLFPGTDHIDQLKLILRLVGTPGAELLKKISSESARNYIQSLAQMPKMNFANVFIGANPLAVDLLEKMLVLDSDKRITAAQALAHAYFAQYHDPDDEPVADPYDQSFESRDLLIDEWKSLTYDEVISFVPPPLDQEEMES

For the compound `O=C(CCC(F)(F)C(F)(F)C(F)(F)C(F)(F)C(F)(F)C(F)(F)C(F)(F)C(F)(F)F)NCCCCCCCCCN[C@@H]1[C@H](O)[C@@H](O)[C@H](O)[C@H]2COC(=O)N21`, the 50% growth inhibitory concentration (GI50) in series [1], in series [3], in [4], in series [6], in [8] and in series [9] was > 100 µM in each case. For the same compound, the results for the EC50 in [2] and in series [7] were 152 µM and 30 µM, respectively. The compound further returned a CAC in series [5] of 6.9 µM.

On to `O=C(CCC(F)(F)C(F)(F)C(F)(F)C(F)(F)C(F)(F)C(F)(F)C(F)(F)C(F)(F)F)NCCCCCCCCCN[C@@H]1[C@H](O)[C@@H](O)[C@@H](O)[C@H]2COC(=O)N21`, for which the 50% growth inhibitory concentration (GI50) in series [1], in series [3], in series [4], in series [6], in series [8] and in series [9] was > 100 µM in each case. The EC50 came to 124 µM in series [2] and 22.9 µM in series [7]. This compound also came in with a CAC in series [5] of 13 µM.

Turning to `O=C(CCC(F)(F)C(F)(F)C(F)(F)C(F)(F)F)NCCCCCCCCCN[C@@H]1[C@H](O)[C@@H](O)[C@H](O)[C@H]2COC(=O)N21`, the GI50 in [1], in series [3], in series [4], in series [6], in [8] and in series [9] was > 100 µM each time. Besides, the figures for the EC50 in [2] and in series [7] were > 200 µM and > 40 µM, respectively. For the same compound, in series [5], the CAC worked out at 77.9 µM.

As to `CCCCCCCCCCCCCCCCOP(=O)([O-])OCC[N+](C)(C)C` [MILTEFOSINE], in series [7], the concentration giving a half-maximal response (EC50) was found to be 0.44 µM.

Turning to `O=C(CCC(F)(F)C(F)(F)C(F)(F)C(F)(F)F)NCCCCCCCCCN[C@@H]1[C@H](O)[C@@H](O)[C@@H](O)[C@H]2COC(=O)N21`, the 50% growth inhibitory concentration (GI50) in [1] was 76 µM; in [3], 96 µM; in series [4], > 100 µM; in series [6] it was 45 µM; in [8], > 100 µM; in series [9] it was > 100 µM. The results for the concentration giving a half-maximal response (EC50) in [2] and in series [7] were > 200 µM and > 40 µM, respectively. The CAC in series [5] is 118 µM.

On to `CCCCCCCCCCCCS(=O)(=O)[C@@H]1[C@H](O)[C@@H](O)[C@@H](O)[C@H]2COC(=O)N21`, for which the outcome in series [10] was Active.

Regarding `O=C(CCC(F)(F)C(F)(F)C(F)(F)C(F)(F)C(F)(F)C(F)(F)F)NCCCCCCCCCN[C@@H]1[C@H](O)[C@@H](O)[C@H](O)[C@H]2COC(=O)N21`, the concentration for 50% growth inhibition (GI50) in series [1] turned out to be 12 µM; in [3], 11 µM; in series [4], 16 µM; in series [6] it was 12 µM; in [8], 13 µM; in series [9], 14 µM. Besides, the result in series [11] and in series [12] was Active. In addition, the EC50 in [2] turned out to be 65 µM; in series [7] it was 24.6 µM. For the same compound, the CAC in series [5] was 22 µM. The Activity entry in [13] is “Non-Toxic”; in [14], “Tde”.

For the compound `O=C(CCC(F)(F)C(F)(F)C(F)(F)C(F)(F)C(F)(F)C(F)(F)F)NCCCCCCCCCN[C@@H]1[C@H](O)[C@@H](O)[C@@H](O)[C@H]2COC(=O)N21`, the GI50 came out at 17 µM in series [1]; 15 µM in series [3]; 16 µM in [4]; 10 µM in [6]; 17 µM in series [8]; 14 µM in series [9]. For the same compound, the Activity result was “Tde” in series [15] and “Non-Toxic” in series [13]. Moreover, the result in series [11] and in series [16] was Active. Besides, the concentration giving a half-maximal response (EC50) in [2] was 56.6 µM; in series [7], 27.2 µM. Besides, the CAC in series [5] turned out to be 14 µM.
